This note sets out measurements from patent US20220144812A1, “QUINOLINE DERIVATIVES AND THEIR USE FOR THE TREATMENT OF CANCER” (Epizyme, Inc., priority 2019, published 2022).

Molecules are shown by their SMILES.

The target in one test is T1, EP300 (P300(1048-1664)) (Homo sapiens, UniProt Q09472).
T1 construct: P300(1048-1664)
T1 sequence (Q09472 1048-1664): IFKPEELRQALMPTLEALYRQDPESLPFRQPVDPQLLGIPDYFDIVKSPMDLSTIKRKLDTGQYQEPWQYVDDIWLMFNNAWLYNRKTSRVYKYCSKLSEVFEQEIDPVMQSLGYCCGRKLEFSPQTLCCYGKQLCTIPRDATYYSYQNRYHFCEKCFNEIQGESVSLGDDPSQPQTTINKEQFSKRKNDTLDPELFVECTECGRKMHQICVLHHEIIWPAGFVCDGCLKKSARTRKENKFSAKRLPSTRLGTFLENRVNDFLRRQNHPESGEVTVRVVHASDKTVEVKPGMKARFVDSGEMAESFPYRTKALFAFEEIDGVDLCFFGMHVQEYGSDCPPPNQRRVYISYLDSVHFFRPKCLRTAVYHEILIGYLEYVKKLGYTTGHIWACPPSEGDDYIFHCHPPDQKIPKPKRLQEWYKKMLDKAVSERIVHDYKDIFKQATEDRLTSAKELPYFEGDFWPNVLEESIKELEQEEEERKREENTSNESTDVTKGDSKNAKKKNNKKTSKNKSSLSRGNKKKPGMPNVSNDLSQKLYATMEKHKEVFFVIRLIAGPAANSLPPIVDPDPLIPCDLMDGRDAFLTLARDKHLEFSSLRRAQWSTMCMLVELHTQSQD
Description: Biochemical assay for EP300, SAMDI. To be noted: P300(1048-1664), Peptide #233, Ac-CoA, SAMDI mass spectrometry; read-out: EP300 Biochemistry IC50. From the text:
The following example describes materials and methods relating to a biochemical assay for EP300. IC50 values (micromolar (μM)) are summarized in Table 1, Table 2, and Table 3 under the column labeled: “EP300 Biochemistry IC50 (micromolar).”

For test [1], the system named is H3K18Ac in HB-CLS-2 cells. Description: H3K18AC in-cell western (ICW) assay. It counts as cell-based. To be noted: 2 h, H3K18Ac in HB-CLS-2 cells, 2 hrs compound incubation; read-out: CREBBP ICW IC50. In a few lines: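 In-cell western: after methanol fixation, blocking, overnight 4° C anti-H3K18Ac staining, then 800CW secondary plus DRAQ5 for DNA content, integrated intensities were scanned at 800 and 700 nm. Before this, compound exposure lasted 2 hr at 37° C in HB-CLS-2 cells plated 16–24 hours earlier. Values expressed as IC50 (μM).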

The next test relates to 647V cells. Description: High throughput proliferation (HTP) assay. It counts as cell-based. The note with it: Homo sapiens, 647-V, 168 h, 647V cells, day 7, CellTiter-Glo; read-out: CREBBP HTP IC50. In short, it runs like this:
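Proliferation IC50 (micromolar) derived from a 7-day CellTiter-Glo viable-cell readout in 647V cells exposed, in triplicate, to rising compound concentrations; cells grown in DMEM plus 15% heat-inactivated FBS at 37° C under 5% CO2.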

The next test concerns the target T2, CREBBP (1084-1701) (Homo sapiens, UniProt Q92793).
T2 construct: measured in the following biochemical assay using CREBBP (1084-1701); purchased
Description: Biochemical assay for CREBBP (1084-1701), SAMDI. The note with it: Peptide #233, Acetyl-CoA, SAMDI mass spectrometry, read-out: CREBBP Biochemistry IC50. In short, it runs like this:
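Acetyltransferase activity measured by SAMDI mass spectrometry after capture on biochip. Enzyme sat with compound 30 min at RT before acetyl-CoA and biotinylated H3 11-25 (K14R, K23R) peptide were added for 30 min at RT. Formic acid quench, bicarbonate neutralisation; IC50 values reported.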

T2 sequence (Q92793 1084-1701): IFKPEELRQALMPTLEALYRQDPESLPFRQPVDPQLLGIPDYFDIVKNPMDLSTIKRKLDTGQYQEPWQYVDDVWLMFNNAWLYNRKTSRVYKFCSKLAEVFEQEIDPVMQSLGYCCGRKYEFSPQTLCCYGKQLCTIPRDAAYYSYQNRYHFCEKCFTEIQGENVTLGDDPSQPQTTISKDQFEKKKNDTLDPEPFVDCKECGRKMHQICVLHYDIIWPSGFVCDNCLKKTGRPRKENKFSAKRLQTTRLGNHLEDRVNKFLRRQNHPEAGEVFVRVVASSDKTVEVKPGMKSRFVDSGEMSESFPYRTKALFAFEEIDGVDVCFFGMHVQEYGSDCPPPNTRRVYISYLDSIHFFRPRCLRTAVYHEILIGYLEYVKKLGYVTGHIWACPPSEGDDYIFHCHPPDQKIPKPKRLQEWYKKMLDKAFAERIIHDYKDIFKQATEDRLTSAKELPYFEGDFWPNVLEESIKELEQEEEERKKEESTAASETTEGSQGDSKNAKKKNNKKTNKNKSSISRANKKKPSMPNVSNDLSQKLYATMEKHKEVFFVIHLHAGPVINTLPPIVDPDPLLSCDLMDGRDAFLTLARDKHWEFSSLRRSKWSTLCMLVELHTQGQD

Consider `CCc1ncc(CN(C)C(=O)c2nc(-c3cc(-c4ncc[nH]4)n(C)n3)nc3ccc(Cl)cc23)n1C` [Compound 631], for which the IC50 amounted to 8.8 nM on EP300 (P300(1048-1664)), 125 nM in test [1], 194 nM in the test on 647V cells and 16.7 nM on CREBBP (1084-1701).
Regarding `CCn1ncc(CN(C)C(=O)c2nc(-c3cnc4n[nH]c(NC)c4c3)nc3ccc(Cl)cc23)c1C` [Compound 632], the IC50 came to 4.6 nM on EP300 (P300(1048-1664)), 42.1 nM in test [1], 105 nM with 647V cells and 3.2 nM at CREBBP (1084-1701).
For `CCc1ncc(CN(C)C(=O)c2nc(-c3cc(C(=O)NC)n(C)n3)nc3ccc(C4CC4)cc23)n1C` [Compound 633], in that order: 14.6 nM, 227 nM, 369 nM and 34.3 nM.
Regarding `CCn1ncc(CN(C)C(=O)c2cc(-c3cc(C(=O)NC)n(C)n3)nc3ccc(C4CC4)cc23)c1C` [Compound 635], the IC50 on EP300 (P300(1048-1664)) was 6.6 nM; in test [1], 52.6 nM; in the test on 647V cells it was 143 nM; on CREBBP (1084-1701), 24.2 nM.
For `CCc1ncc(CN(C)C(=O)c2cc(-c3cc(C(=O)NC)n(C)n3)nc3ccc(C4CC4)cc23)n1C` [Compound 636], in that order: 5.6 nM, 65.4 nM, 132 nM and 24.8 nM.
On to `CCc1ncc(CN(C)C(=O)c2cc(-c3ccc(NCCN(C)C)c(C)n3)nc3ccc(COC)cc23)n1C` [Compound 637], for which the IC50 on EP300 (P300(1048-1664)) was 34.4 nM; in test [1], 420 nM; in the test with 647V cells, 295 nM; at CREBBP (1084-1701), 98.7 nM.
For `CCn1ncc(CN(C)C(=O)c2nc(-c3cc(C(=O)NC)n(C)n3)nc3ccc(C4CC4)cc23)c1C` [Compound 638], in that order: 66.2 nM, 124 nM, 357 nM and 116 nM.
For `CCn1ncc(C(N(C)C(=O)c2cc(-c3ccc(NCCN(C)C)c(C)n3)nc3ccc(Cl)cc23)C(F)(F)F)c1C` (centres unmarked) [Compound 639], in that order: 50000 nM, 20000 nM, 2170 nM and 50000 nM.
As for `Cc1nc(-c2cc(C(=O)N(C)Cc3cnc(C4CC4)n3C)c3cc(Cl)ccc3n2)ccc1NC1CCN(C)C1` (centres unmarked) [Compound 640], the half-maximal inhibitory concentration (IC50) at EP300 (P300(1048-1664)) was determined as 9 nM; in test [1], 135 nM; in the test with 647V cells it was 48.7 nM; on CREBBP (1084-1701), 24.6 nM.
Taken in the same sequence, the figures for `COCc1ccc2nc(-c3ccc(NCCN(C)C)c(C)n3)cc(C(=O)N(C)Cc3cnc(C4CC4)n3C)c2c1` [Compound 641] were 22.1 nM, 200 nM, 111 nM and 73.3 nM.
Turning to `CCc1ncc(CN(C)C(=O)c2cc(-c3ccc(NC4CCN(C)C4)c(C)n3)nc3ccc(Cl)cc23)n1C` (centres unmarked) [Compound 642], the IC50 amounted to 9.1 nM at EP300 (P300(1048-1664)), 86.6 nM in test [1], 33.4 nM in the test with 647V cells and 28.1 nM on CREBBP (1084-1701).
